This note sets out measurements from patent publication US12497398B2, “Potent and selective covalent inhibitors of serine-arginine protein kinase (SRPK) 1 and SRPK2 and uses thereof” (DANA-FARBER CANCER INSTITUTE, INC., priority 2020, dated 2025).

One assay deals with SRPK1 (Homo sapiens, UniProt Q96SB4). As to the kind of experiment: Z'-LYTE kinase assay, SRPK1 inhibition. Type of assay: biochemical. As to the method: (§1) IC50 values were determined by Z'-LYTE® kinase assay (catalog number PV3193, Invitrogen™) as described in Hatcher et al., Cell Chem. Biol. 25:460-470 (2018).
For the next assay, the target named is SRPK2 (Homo sapiens, UniProt P78362). As to the kind of experiment: Z'-LYTE kinase assay, SRPK2 inhibition. It counts as biochemical. As to the method:
as §1

Where [1] appears, read: Z'-LYTE kinase assay, read-out: IC50 (nM) SRPK1.
[2] abbreviates: Z'-LYTE kinase assay, read-out: IC50 (nM) SRPK2.

Read-outs that look alike come from different tables or passages of the source.

SRPK2, sequence (P78362 whole entry): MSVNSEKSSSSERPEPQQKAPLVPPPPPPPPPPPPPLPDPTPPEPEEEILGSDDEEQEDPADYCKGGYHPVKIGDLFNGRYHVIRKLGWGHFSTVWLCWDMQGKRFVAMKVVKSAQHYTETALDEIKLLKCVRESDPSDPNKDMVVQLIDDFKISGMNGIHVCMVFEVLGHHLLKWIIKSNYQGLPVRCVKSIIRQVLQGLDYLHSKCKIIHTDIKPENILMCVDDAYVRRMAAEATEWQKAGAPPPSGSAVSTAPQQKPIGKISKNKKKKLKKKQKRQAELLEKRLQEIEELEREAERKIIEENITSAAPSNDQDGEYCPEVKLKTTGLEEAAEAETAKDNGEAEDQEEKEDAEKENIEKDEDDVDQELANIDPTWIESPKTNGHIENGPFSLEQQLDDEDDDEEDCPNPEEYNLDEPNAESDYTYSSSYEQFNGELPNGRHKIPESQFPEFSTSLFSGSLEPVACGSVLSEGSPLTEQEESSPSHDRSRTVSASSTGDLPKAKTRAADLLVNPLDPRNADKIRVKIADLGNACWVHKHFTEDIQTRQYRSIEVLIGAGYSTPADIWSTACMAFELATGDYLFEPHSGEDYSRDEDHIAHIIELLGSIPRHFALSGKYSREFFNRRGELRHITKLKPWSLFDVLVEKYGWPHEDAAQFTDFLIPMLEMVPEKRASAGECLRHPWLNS
SRPK1, sequence (Q96SB4 whole entry): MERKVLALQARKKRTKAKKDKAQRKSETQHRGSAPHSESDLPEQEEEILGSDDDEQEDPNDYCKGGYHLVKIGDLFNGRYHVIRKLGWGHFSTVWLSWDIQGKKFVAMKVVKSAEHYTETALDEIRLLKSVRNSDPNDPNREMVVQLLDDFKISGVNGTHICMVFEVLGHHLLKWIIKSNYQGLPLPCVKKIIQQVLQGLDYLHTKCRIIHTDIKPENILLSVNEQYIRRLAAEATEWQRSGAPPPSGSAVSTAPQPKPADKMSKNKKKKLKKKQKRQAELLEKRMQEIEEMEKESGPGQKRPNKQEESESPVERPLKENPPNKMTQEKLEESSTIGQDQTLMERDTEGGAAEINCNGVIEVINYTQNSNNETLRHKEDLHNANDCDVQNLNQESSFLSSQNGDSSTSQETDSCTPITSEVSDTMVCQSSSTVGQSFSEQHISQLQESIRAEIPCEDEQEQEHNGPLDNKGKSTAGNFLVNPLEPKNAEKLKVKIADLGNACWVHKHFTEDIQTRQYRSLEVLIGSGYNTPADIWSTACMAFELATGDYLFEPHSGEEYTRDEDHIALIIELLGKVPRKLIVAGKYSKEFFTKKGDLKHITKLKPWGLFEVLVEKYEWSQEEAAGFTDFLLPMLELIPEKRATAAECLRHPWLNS

Consider `CCc1cc2c(=O)c3c4ccc(C#N)cc4[nH]c3n(C(C)C)c2cc1-c1cccc(S(=O)(=O)F)c1` [Compound 1, 3-(8-cyano-2-ethyl-5-isopropyl-11-oxo-6,11-dihydro-5H-indolo[2,3-b]quinolin-3-yl)benzenesulfonyl fluoride], for which the figures for the IC50 at SRPK1 (setting [1]) and on SRPK2 (setting [2]) were 6 nM and 9 nM, respectively.
For `COc1cc2c(=O)c3c4ccc(C#N)cc4[nH]c3n(C(C)C)c2cc1-c1cccc(S(=O)(=O)F)c1` [Compound 2, 3-(8-cyano-5-isopropyl-2-methoxy-11-oxo-6,11-dihydro-5H-indolo[2,3-b]quinolin-3-yl)benzenesulfonyl fluoride], the IC50 against SRPK1 turned out to be 4 nM; against SRPK2 it was 5 nM.
`COc1cc2c(=O)c3c4ccc(C#N)cc4[nH]c3n(C(C)C)c2cc1-c1cncc(S(=O)(=O)F)c1` [Compound 3, 5-(8-cyano-5-isopropyl-2-methoxy-11-oxo-6,11-dihydro-5H-indolo[2,3-b]quinolin-3-yl)pyridine-3-sulfonyl fluoride]: the IC50 came out at 6 nM on SRPK1 (setting [1]) and 5 nM at SRPK2 (setting [2]).
